From ChEMBL document CHEMBL1201862, “PubChem BioAssay data set” (2004)
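The compound was tested at five concentrations on cells cultured in 96-well plates, with a 48-hour exposure period. GI50 is the concentration that inhibits growth by half.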 The source made the active and inactive calls. No stated cut-off is given here; in the data, active = GI50 up to about 1.1 µM and inactive = higher.

Columns and labels:
Experiment in all cases: inhibition of tumour cell growth, NCI panel, 48 h
[1] = system: 786-0
[2] = system: A498
[3] = system: A549
[4] = system: ACHN
[5] = system: BT-549
[6] = system: CAKI-1
[7] = system: CCRF-CEM
[8] = system: COLO 205
[9] = system: DU-145
[10] = system: EKVX
[11] = system: HCC 2998
[12] = system: HCT-116
[13] = system: HCT-15
[14] = system: HL-60
[15] = system: HOP-62
[16] = system: HOP-92
[17] = system: HT-29
[18] = system: IGROV-1
[19] = system: K562
[20] = system: KM12
[21] = system: LOX IMVI
[22] = system: M14
[23] = system: MCF7
[24] = system: MDA-MB-231
[25] = system: MOLT-4
[26] = system: NCI-H226
[27] = system: NCI-H23
[28] = system: NCI-H460
[29] = system: NCI-H522
[30] = system: NCI/ADR-RES
[31] = system: OVCAR-3
[32] = system: OVCAR-4
[33] = system: OVCAR-5
[34] = system: OVCAR-8
[35] = system: PC-3
[36] = system: RPMI-8226
[37] = system: RXF 393
[38] = system: SF-268
[39] = system: SF-295
[40] = system: SF-539
[41] = system: SK-MEL-28
[42] = system: SK-MEL-2
[43] = system: SK-MEL-5
[44] = system: SK-OV-3
[45] = system: SN12C
[46] = system: SNB-75
[47] = system: SR
[48] = system: SW-620
[49] = system: T47D
[50] = system: TK-10
[51] = system: U-251
[52] = system: UACC-257
[53] = system: UACC-62
[54] = system: UO-31
[55] = system: Hs-578T
[56] = system: MDA-MB-435
[57] = system: MDA-N
[58] = system: Malme-3M
[59] = system: SNB-19

**Q.** What does the source list for `C[N+](C)(C)CC(=O)N/N=C(/CC(=O)CC(C1=C(O)c2ccccc2OC1)c1ccccc1)C(=O)Nc1cccc(Cl)c1` (stereo unspecified)?
**A.** GI50 [1]: > 100000 nM (inactive); GI50 [2]: > 100000 nM (inactive); GI50 [3]: > 100000 nM (inactive); GI50 [4]: > 100000 nM (inactive); GI50 [5]: > 100000 nM (inactive); GI50 [6]: > 100000 nM (inactive); GI50 [7]: > 100000 nM (inactive); GI50 [8]: > 100000 nM (inactive); GI50 [9]: > 100000 nM (inactive); GI50 [10]: > 100000 nM (inactive); GI50 [11]: > 100000 nM (inactive); GI50 [12]: > 100000 nM (inactive); GI50 [13]: > 100000 nM; GI50 [14]: > 100000 nM (inactive); GI50 [15]: > 100000 nM (inactive); GI50 [16]: > 100000 nM (inactive); GI50 [17]: > 100000 nM (inactive); GI50 [18]: > 100000 nM (inactive); GI50 [19]: > 100000 nM (inactive); GI50 [20]: > 100000 nM (inactive); GI50 [21]: > 100000 nM (inactive); GI50 [22]: > 100000 nM (inactive); GI50 [23]: > 100000 nM (inactive); GI50 [24]: > 100000 nM (inactive); GI50 [25]: > 100000 nM (inactive); GI50 [26]: > 100000 nM (inactive); GI50 [27]: > 100000 nM (inactive); GI50 [28]: > 10000 nM (inactive); GI50 [29]: > 100000 nM (inactive); GI50 [30]: > 100000 nM (inactive); GI50 [31]: > 100000 nM (inactive); GI50 [32]: > 100000 nM (inactive); GI50 [33]: > 100000 nM (inactive); GI50 [34]: > 100000 nM (inactive); GI50 [35]: > 100000 nM (inactive); GI50 [36]: > 100000 nM (inactive); GI50 [37]: > 100000 nM (inactive); GI50 [38]: > 100000 nM (inactive); GI50 [39]: > 100000 nM (inactive); GI50 [40]: > 100000 nM (inactive); GI50 [41]: > 100000 nM (inactive); GI50 [42]: > 100000 nM (inactive); GI50 [43]: > 100000 nM (inactive); GI50 [44]: > 100000 nM (inactive); GI50 [45]: > 100000 nM (inactive); GI50 [46]: > 100000 nM (inactive); GI50 [47]: > 100000 nM (inactive); GI50 [48]: > 100000 nM (inactive); GI50 [49]: > 100000 nM (inactive); GI50 [50]: > 100000 nM (inactive); GI50 [51]: > 100000 nM (inactive); GI50 [52]: > 100000 nM (inactive); GI50 [53]: > 100000 nM (inactive); GI50 [54]: > 100000 nM (inactive)

**Q.** Which results are given for `COc1ccc(C[C@H]2NC(=O)/C=C/C[C@@H]([C@H](C)[C@H]3O[C@@H]3c3ccccc3)OC(=O)[C@H](CC(C)C)OC(=O)[C@H](C)CNC2=O)cc1`?
**A.** GI50 [1]: 0.0125 nM (active); GI50 [2]: 0.0215 nM (active); GI50 [3]: 0.0316 nM (active); GI50 [4]: 0.0593 nM (active); GI50 [6]: 0.0125 nM (active); GI50 [7]: 0.0175 nM (active); GI50 [8]: 0.0199 nM (active); GI50 [9]: 0.0296 nM (active); GI50 [10]: 0.0377 nM (active); GI50 [11]: 0.0445 nM (active); GI50 [12]: 0.0157 nM (active); GI50 [13]: 0.0428 nM; GI50 [14]: 0.0155 nM (active); GI50 [15]: 0.0247 nM (active); GI50 [17]: 0.00818 nM (active); GI50 [55]: 0.0101 nM (active); GI50 [18]: 0.0324 nM (active); GI50 [19]: 0.00927 nM (active); GI50 [20]: 0.0393 nM (active); GI50 [21]: 0.0174 nM (active); GI50 [22]: 0.0172 nM (active); GI50 [23]: > 0.0895 nM (active); GI50 [24]: 0.0449 nM (active); GI50 [56]: 0.00337 nM (active); GI50 [57]: 0.00531 nM (active); GI50 [25]: 0.0285 nM (active); GI50 [58]: 0.0219 nM (active); GI50 [26]: > 0.0441 nM (active); GI50 [27]: 0.0254 nM (active); GI50 [28]: 0.0313 nM (active); GI50 [29]: 0.0105 nM (active); GI50 [30]: > 0.1 nM (active); GI50 [31]: 0.0158 nM (active); GI50 [32]: > 0.1 nM (active); GI50 [33]: 0.0394 nM (active); GI50 [34]: 0.0169 nM (active); GI50 [35]: 0.0209 nM (active); GI50 [36]: 0.0285 nM (active); GI50 [37]: 0.00927 nM (active); GI50 [38]: 0.0713 nM (active); GI50 [39]: 0.0107 nM (active); GI50 [40]: 0.0194 nM (active); GI50 [41]: 0.0483 nM (active); GI50 [42]: > 0.0442 nM (active); GI50 [43]: 0.00753 nM (active); GI50 [44]: 0.0206 nM (active); GI50 [45]: 0.0394 nM (active); GI50 [59]: 0.0247 nM (active); GI50 [46]: 0.0147 nM (active); GI50 [47]: 0.00336 nM (active); GI50 [48]: 0.014 nM (active); GI50 [49]: > 0.1 nM (active); GI50 [50]: > 0.1 nM (active); GI50 [51]: 0.0286 nM (active); GI50 [52]: > 0.0589 nM (active); GI50 [53]: 0.00671 nM (active); GI50 [54]: 0.0471 nM (active)
